# Experimental data published in the supplement of paper PMC10331698.
# ± gives the standard deviation of the averaged measurements.
# How the values were obtained:
# Experiment in all cases: level (log10 ratio to DMSO vehicle control); higher = higher biomarker level / cell amount than vehicle control
# Details in all cases: in DMSO
# [1] = compound: C=CC(=O)OCCC(F)(F)C(F)(F)C(F)(F)C(F)(F)F [2-(Perfluorobutyl)ethyl acrylate]
# Protocol: (§1)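 BioMAP Diversity Plus panel of 12 human primary cell co-culture systems (3C, 4H, LPS, SAg, BT, BF4T, BE3C, CASM3C, HDF3CGF, KF3CT, MyoF, Mphg). Compounds were added 1 h before stimulation and left for 24 h (MyoF 48 h; BT 72 h for soluble read-outs or 6 d for IgG). Biomarkers were read by ELISA, cytotoxicity by SRB, PBMC viability and proliferation by Alamar Blue. Each well value was divided by the mean of 8 DMSO control wells on the same plate and log10 transformed; duplicate blinded samples were tested at 4 concentrations.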
# [2] = compound: CNS(=O)(=O)C(F)(F)C(F)(F)C(F)(F)C(F)(F)C(F)(F)C(F)(F)C(F)(F)C(F)(F)F [N-Methylperfluorooctanesulfonamide]
# Protocol: as §1
# [3] = compound: FC(F)(F)C(F)(F)C(F)(F)C(F)(F)C(F)(F)C(F)(F)C(F)(F)CCI [1-Iodo-1H,1H,2H,2H-perfluorononane]
# Protocol: as §1
# [4] = compound: N=C(N)C(F)(F)C(F)(F)C(F)(F)C(F)(F)C(F)(F)C(F)(F)C(F)(F)F [Perfluorooctanamidine]
# Protocol: as §1
# [5] = compound: O=C(O)C(F)(F)OC(F)(F)C(F)(F)OC(F)(F)C(F)(F)C(F)(F)C(F)(F)F [Perfluoro-3,6-dioxadecanoic acid]
# Protocol: as §1
# [6] = compound: O=C(O)CCC(F)(F)C(F)(F)C(F)(F)F [3:3 Fluorotelomer carboxylic acid]
# Protocol: as §1
# [7] = compound: OCC(F)(F)C(F)(F)C(F)(F)C(F)(F)C(F)(F)C(F)F [1H,1H,7H-Dodecafluoro-1-heptanol]
# Protocol: as §1
Test System,level (log10) ([1]; 6700 nM),level (log10) ([1]; 20000 nM),level (log10) ([1]; 60000 nM),level (log10) ([2]; 6700 nM),level (log10) ([2]; 20000 nM),level (log10) ([2]; 60000 nM),level (log10) ([3]; 6700 nM),level (log10) ([3]; 20000 nM),level (log10) ([4]; 6700 nM),level (log10) ([4]; 20000 nM),level (log10) ([4]; 60000 nM),level (log10) ([5]; 6700 nM),level (log10) ([5]; 20000 nM),level (log10) ([5]; 60000 nM),level (log10) ([6]; 6700 nM),level (log10) ([6]; 20000 nM),level (log10) ([6]; 60000 nM),level (log10) ([7]; 6700 nM),level (log10) ([7]; 20000 nM),level (log10) ([7]; 60000 nM)
LPS:sTNF-alpha,-0.009 ± 0.014,-0.0025 ± 0.018,-0.0165 ± 0.025,0.0045 ± 0.073,-0.012 ± 0.1,0.0085 ± 0.13,0.0075 ± 0.0035,0.0035 ± 0.0021,-0.0145 ± 0.071,-0.095 ± 0.17,-0.08,0.012 ± 0.011,0.0155 ± 0.018,0.0135 ± 0.015,-0.0235 ± 0.023,-0.0195 ± 0.019,-0.0115 ± 0.032,-0.06 ± 0.028,-0.04 ± 0.042,-0.023 ± 0.073
BE3C:HLA-DR,0.0145 ± 0.022,-0.02 ± 0.0071,-0.0575 ± 0.005,-0.0225 ± 0.0064,-0.0445 ± 0.012,-0.039 ± 0.041,-0.0065 ± 0.0035,-0.0225 ± 0.0092,-0.0015 ± 0.018,-0.003 ± 0.021,-0.01,-0.038 ± 0.021,-0.08 ± 0.0085,-0.135 ± 0.017,-0.0345 ± 0.035,-0.018 ± 0.011,-0.0225 ± 0.005,0.0155 ± 0.032,-0.0015 ± 0.042,-0.0095 ± 0.015
LPS:CD106/VCAM-1,-0.028 ± 0.024,-0.0465 ± 0.0035,-0.141 ± 0.011,-0.013 ± 0.038,0.0295 ± 0.018,0.03 ± 0.027,0.002 ± 0.011,-0.0155 ± 0.039,-0.017 ± 0.014,-0.0365 ± 0.026,-0.091,0.002 ± 0.037,-0.0175 ± 0.035,-0.092 ± 0.014,-0.0155 ± 0.0078,0.011 ± 0.0028,-0.0145 ± 0.029,0 ± 0.0042,-0.0075 ± 0.00071,-0.0065 ± 0.019
LPS:CD62E/E-Selectin,0.0345 ± 0.023,0.033 ± 0.0071,0.0015 ± 0.04,-0.024 ± 0.011,0.01 ± 0.02,0.03 ± 0.018,-0.003 ± 0.027,-0.0175 ± 0.057,0.0135 ± 0.00071,-0.009 ± 0.013,0.019,0.008 ± 0.034,0.006 ± 0.04,0.024 ± 0.04,-0.0045 ± 0.015,-0.016 ± 0.0057,0.0075 ± 0.011,0.0045 ± 0.0064,-0.005 ± 0.013,-0.009 ± 0.014
BT:sIL-17A,-0.217 ± 0.17,-0.465 ± 0.067,-1.03 ± 0.46,0.151 ± 0.14,-0.065 ± 0.0085,-0.0925 ± 0.3,0.0035 ± 0.1,-0.0305 ± 0.15,0.1795 ± 0.00071,-0.145 ± 0.044,-0.141,0.034 ± 0.12,0.045 ± 0.22,-0.147 ± 0.065,0.021 ± 0.11,-0.049 ± 0.13,-0.0765 ± 0.26,-0.182 ± 0.044,-0.091 ± 0.14,-0.174 ± 0.16
BT:sTNF-alpha,-0.095 ± 0.1,-0.192 ± 0.0085,-0.767 ± 0.3,-0.017 ± 0.055,0.0015 ± 0.022,-0.0905 ± 0.29,0.018 ± 0.054,0.063 ± 0.12,0.102 ± 0.099,0.0345 ± 0.084,0.01,0.0675 ± 0.086,0.0875 ± 0.08,-0.046 ± 0.051,0.152 ± 0.077,0.0025 ± 0.098,0.158 ± 0.018,-0.01 ± 0.31,0.0815 ± 0.039,-0.0155 ± 0.15
BT:sIL-6,-0.063 ± 0.041,-0.153 ± 0.0028,-0.76 ± 0.15,-0.0045 ± 0.04,0.003 ± 0.0042,-0.083 ± 0.03,0.009 ± 0.017,-0.0575 ± 0.042,0.0205 ± 0.025,-0.0285 ± 0.016,-0.097,0.0375 ± 0.029,0.0265 ± 0.039,-0.058 ± 0.033,0.0225 ± 0.056,0.055 ± 0.065,0.0425 ± 0.076,0.007 ± 0.085,-0.037 ± 0.014,-0.113 ± 0.068
